We go through 16 compounds from ChEMBL document CHEMBL4425121, “Discovery of Substituted 1H-Pyrazolo[3,4-b]pyridine Derivatives as Potent and Selective FGFR Kinase Inhibitors” (ACS Med Chem Lett, 2016).

For data set [1], the system named is NCI-H1581. Put plainly: Antiproliferative activity against human NCI-H1581 cells after 72 hrs by CCK-8 assay. Format: functional, cell-based. Particulars: NCI-H1581, 72 h. Background: Formazan colour is commonly taken as a measure of viable cells.
Data set [2] deals with Fibroblast growth factor receptor 1 (Homo sapiens, UniProt P11362). Put plainly: Inhibition of recombinant human FGFR1 using poly (Glu,Tyr)4:1 as substrate incubated for 60 mins by ELISA. In general terms: In an ELISA, binding on a coated surface is turned into a signal by an enzyme label.
A short description of data set [3]: Volume of distribution in ICR mouse at 2 mg/kg, iv by LC-MS/MS analysis. Format: ADME, organism-based. Particulars: in vivo.
Data set [4] can be described thus: Clearance in ICR mouse at 2 mg/kg, iv by LC-MS/MS analysis. The format is ADME, organism-based. Particulars: in vivo.
Data set [5] in a line: Half life in ICR mouse at 2 mg/kg, iv by LC-MS/MS analysis. The format is ADME, organism-based. Particulars: in vivo.
Data set [6] is described as follows: Oral bioavailability in ICR mouse at 12.5 mg/kg administered as gavage by LC-MS/MS analysis. Format: ADME, organism-based. Particulars: in vivo.
The test system of data set [7] is NCI-H1581. Nature of the data set: Antitumor activity against human NCI-H1581 cells xenografted in nude mouse assessed as tumor growth inhibition at 50 mg/kg, po qd administered for 21 days. Format: functional. To be noted: 504 h, read-out: TGI. (Xenograft models place foreign cells or tissue in a host animal.)
Data set [8] can be described thus: Antiproliferative activity against human KATO III cells after 72 hrs by CCK-8 assay. The format is functional, cell-based.
Data set [9] in a line: Half life in ICR mouse at 12.5 mg/kg administered as oral gavage by LC-MS/MS analysis. Format: ADME, organism-based. To be noted: in vivo.
The subject of data set [10] is NCI-H1581. To be noted: Homo sapiens.
Description: Antitumor activity against human NCI-H1581 cells xenografted in nude mouse assessed as tumor growth inhibition administered orally qd for 21 days
The next data set deals with KG-1. Put plainly: Antiproliferative activity against human KG1 cells after 72 hrs by CCK-8 assay. The format is functional, cell-based. To be noted: KG-1, 72 h.
Data set [11] is described as follows: Cmax in ICR mouse at 12.5 mg/kg administered as oral gavage by LC-MS/MS analysis. The format is ADME, organism-based. Also on record: dose 12.5 mg/kg, route oral. Particulars: in vivo.
Data set [12] can be described thus: AUC(0 to infinity) in ICR mouse at 2 mg/kg, iv by LC-MS/MS analysis. The format is ADME, organism-based. Also on record: dose 2 mg/kg, time infinity, route intravenous. Particulars: in vivo.
The target in data set [13] is Fibroblast growth factor receptor 4 (Homo sapiens, UniProt P22455).
Description: Inhibition of human FGFR4 using poly (Glu,Tyr)4:1 as substrate incubated for 60 mins by ELISA
Another data set relates to RT-112. Put plainly: Antiproliferative activity against human RT112 cells after 72 hrs by CCK-8 assay. Format: functional, cell-based. Particulars: RT-112, 72 h.
Data set [14] can be described thus: AUC(0 to infinity) in ICR mouse at 12.5 mg/kg administered as oral gavage by LC-MS/MS analysis. The format is ADME, organism-based. Also on record: dose 12.5 mg/kg, route oral, time infinity. To be noted: in vivo.
The nature of data set [15]: Cmax in ICR mouse at 2 mg/kg, iv by LC-MS/MS analysis. The format is ADME, organism-based. Also on record: dose 2 mg/kg, route intravenous. Particulars: in vivo.
The test system of another data set is SNU-16. Put plainly: Antiproliferative activity against human SNU16 cells after 72 hrs by CCK-8 assay. To be noted: SNU-16, 72 h. The format is functional, cell-based.
Data set [16] can be described thus: Toxicity in nude mouse xenografted with human NCI-H1581 cells assessed as body weight loss at 50 mg/kg, po qd administered for 21 days. The format is organism-based. Particulars: in vivo, 504 h.
Data set [17] has as its system NCI-H1581. Put plainly: Antitumor activity against human NCI-H1581 cells xenografted in nude mouse assessed as tumor growth inhibition at 12.5 mg/kg, po qd administered for 21 days. The format is functional. To be noted: 504 h, read-out: TGI.
Data set [18] in a line: Toxicity in nude mouse xenografted with human NCI-H1581 cells assessed as body weight loss at 12.5 mg/kg, po qd administered for 21 days. The format is organism-based. To be noted: in vivo, 504 h.
The nature of data set [19]: Protein binding in mouse plasma at 5 uM after 4 hrs by equilibrium dialysis assay. Format: ADME, cell-free. Particulars: read-out: PPB (converted).
Data set [20] deals with Fibroblast growth factor receptor 3 (Homo sapiens, UniProt P22607). Nature of the data set: Inhibition of human FGFR3 using poly (Glu,Tyr)4:1 as substrate incubated for 60 mins by ELISA.
For data set [21], the target named is Fibroblast growth factor receptor 2 (Homo sapiens, UniProt P21802).
Description: Inhibition of human FGFR2 using poly (Glu,Tyr)4:1 as substrate incubated for 60 mins by ELISA
Data set [22] concerns the target Vascular endothelial growth factor receptor 2 (Homo sapiens, UniProt P35968). Put plainly: Inhibition of recombinant human VEGFR2 using poly (Glu,Tyr)4:1 as substrate incubated for 60 mins by ELISA.

What is called IC50 is the midpoint of a concentration-inhibition curve. Usually Vd stands for a proportionality between amount in the body and measured concentration, not a real space. High values mean wide distribution into tissue, low ones little distribution into tissue. By clearance is commonly meant a measure of how efficiently the substance is removed, as volume per time. A low value points to inefficient removal. For orientation: half-life means the time needed for the level to fall by half in the phase considered. One may read the bioavailability as dose-corrected exposure relative to a reference, in per cent. Usually Cmax stands for the maximum level reached in the sampled fluid or tissue. In general, AUC(0-inf) refers to the area under the concentration-time curve extrapolated to infinity. Read a low AUC(0-inf) as low exposure.

Sequence of Fibroblast growth factor receptor 1 (P11362 whole entry): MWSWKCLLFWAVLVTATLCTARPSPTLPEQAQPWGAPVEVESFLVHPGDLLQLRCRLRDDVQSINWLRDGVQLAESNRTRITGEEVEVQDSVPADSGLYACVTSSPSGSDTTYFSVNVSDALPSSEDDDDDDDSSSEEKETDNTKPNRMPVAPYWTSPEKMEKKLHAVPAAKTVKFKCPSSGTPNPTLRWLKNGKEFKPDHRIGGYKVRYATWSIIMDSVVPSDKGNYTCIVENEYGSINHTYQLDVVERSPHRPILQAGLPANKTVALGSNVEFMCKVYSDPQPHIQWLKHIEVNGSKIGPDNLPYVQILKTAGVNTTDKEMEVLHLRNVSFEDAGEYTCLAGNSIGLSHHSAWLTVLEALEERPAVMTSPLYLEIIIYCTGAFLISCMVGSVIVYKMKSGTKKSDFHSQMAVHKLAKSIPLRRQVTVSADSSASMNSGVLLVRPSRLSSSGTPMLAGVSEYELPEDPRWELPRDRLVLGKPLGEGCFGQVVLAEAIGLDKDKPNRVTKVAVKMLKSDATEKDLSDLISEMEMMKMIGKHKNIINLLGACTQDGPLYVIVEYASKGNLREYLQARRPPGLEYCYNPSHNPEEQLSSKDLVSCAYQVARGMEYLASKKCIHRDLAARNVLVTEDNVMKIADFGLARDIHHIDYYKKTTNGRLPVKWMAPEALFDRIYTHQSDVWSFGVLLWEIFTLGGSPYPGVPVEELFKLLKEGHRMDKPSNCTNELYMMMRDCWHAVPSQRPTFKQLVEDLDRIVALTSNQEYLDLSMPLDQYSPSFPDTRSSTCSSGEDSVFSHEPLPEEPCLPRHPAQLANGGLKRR
Sequence of Fibroblast growth factor receptor 3 (P22607 whole entry): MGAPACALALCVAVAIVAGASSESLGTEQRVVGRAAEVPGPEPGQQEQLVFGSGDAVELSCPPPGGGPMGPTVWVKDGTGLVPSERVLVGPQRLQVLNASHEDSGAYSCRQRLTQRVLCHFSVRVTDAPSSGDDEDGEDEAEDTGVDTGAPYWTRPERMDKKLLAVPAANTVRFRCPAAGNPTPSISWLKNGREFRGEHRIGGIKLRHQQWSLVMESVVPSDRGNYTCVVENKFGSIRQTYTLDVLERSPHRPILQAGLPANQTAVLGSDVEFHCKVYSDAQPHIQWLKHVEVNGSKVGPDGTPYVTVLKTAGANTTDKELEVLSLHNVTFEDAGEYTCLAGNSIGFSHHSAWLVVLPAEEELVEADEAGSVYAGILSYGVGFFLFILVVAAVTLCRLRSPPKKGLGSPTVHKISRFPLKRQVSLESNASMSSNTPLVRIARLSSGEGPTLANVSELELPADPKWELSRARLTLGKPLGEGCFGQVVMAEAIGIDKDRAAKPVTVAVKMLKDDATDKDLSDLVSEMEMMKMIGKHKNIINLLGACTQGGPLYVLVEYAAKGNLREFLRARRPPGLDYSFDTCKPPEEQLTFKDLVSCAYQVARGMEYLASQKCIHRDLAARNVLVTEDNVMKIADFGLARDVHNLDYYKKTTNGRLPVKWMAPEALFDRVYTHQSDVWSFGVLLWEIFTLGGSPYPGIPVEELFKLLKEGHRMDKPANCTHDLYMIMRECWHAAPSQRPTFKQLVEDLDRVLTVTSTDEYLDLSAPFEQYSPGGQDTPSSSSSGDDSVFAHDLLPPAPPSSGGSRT
Sequence of Fibroblast growth factor receptor 2 (P21802 whole entry): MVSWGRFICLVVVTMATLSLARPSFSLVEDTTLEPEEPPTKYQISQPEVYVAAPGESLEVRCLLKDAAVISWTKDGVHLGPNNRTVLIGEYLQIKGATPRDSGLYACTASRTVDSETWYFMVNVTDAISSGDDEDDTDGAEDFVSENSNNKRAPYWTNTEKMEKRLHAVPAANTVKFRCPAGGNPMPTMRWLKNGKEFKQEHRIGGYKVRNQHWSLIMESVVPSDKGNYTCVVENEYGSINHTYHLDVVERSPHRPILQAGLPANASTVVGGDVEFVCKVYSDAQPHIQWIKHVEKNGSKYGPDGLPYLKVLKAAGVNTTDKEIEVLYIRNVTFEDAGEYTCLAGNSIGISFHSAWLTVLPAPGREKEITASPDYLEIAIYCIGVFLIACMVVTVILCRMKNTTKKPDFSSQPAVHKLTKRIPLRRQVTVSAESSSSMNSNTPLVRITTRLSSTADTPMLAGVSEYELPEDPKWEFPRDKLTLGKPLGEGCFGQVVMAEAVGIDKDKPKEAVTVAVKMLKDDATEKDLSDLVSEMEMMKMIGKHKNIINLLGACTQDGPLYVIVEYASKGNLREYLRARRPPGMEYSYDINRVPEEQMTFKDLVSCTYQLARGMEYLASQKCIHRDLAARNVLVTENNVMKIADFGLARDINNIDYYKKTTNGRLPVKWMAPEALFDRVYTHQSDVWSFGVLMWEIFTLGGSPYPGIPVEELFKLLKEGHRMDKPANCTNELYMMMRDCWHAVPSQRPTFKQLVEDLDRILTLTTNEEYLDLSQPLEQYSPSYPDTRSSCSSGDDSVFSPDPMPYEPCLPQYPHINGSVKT
Sequence of Vascular endothelial growth factor receptor 2 (P35968 whole entry): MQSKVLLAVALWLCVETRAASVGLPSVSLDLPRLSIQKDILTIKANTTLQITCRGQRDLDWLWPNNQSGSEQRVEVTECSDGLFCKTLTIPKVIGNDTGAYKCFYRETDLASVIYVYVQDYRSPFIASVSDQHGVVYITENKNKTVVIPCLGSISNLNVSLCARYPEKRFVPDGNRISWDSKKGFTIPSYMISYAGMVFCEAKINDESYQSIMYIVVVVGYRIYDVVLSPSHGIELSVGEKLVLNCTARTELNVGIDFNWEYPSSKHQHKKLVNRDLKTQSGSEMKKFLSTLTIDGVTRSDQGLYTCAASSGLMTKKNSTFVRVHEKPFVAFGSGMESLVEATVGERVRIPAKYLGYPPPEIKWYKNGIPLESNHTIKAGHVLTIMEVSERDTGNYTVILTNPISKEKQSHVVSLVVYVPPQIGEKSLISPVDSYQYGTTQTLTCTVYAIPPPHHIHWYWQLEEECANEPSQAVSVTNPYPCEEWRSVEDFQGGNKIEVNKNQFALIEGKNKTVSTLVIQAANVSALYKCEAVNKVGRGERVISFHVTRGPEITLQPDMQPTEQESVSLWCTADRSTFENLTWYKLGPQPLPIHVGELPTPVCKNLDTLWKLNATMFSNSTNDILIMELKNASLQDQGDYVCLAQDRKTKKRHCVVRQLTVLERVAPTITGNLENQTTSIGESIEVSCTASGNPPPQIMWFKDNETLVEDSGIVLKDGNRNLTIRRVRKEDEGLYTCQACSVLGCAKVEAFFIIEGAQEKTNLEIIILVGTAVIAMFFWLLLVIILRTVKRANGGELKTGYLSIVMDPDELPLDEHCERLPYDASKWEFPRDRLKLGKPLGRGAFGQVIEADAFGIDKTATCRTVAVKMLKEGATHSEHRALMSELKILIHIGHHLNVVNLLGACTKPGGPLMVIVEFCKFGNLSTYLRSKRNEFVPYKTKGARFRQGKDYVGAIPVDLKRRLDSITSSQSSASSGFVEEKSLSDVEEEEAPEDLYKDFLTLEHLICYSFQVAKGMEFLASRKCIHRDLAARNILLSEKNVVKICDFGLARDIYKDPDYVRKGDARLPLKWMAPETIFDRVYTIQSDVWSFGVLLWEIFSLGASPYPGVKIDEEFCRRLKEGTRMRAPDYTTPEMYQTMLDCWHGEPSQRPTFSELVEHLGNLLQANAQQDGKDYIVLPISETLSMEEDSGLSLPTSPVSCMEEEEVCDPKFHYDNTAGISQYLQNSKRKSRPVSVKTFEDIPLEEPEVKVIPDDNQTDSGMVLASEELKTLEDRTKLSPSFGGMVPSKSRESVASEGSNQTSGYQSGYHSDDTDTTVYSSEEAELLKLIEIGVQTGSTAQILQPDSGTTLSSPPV
Sequence of Fibroblast growth factor receptor 4 (P22455 whole entry): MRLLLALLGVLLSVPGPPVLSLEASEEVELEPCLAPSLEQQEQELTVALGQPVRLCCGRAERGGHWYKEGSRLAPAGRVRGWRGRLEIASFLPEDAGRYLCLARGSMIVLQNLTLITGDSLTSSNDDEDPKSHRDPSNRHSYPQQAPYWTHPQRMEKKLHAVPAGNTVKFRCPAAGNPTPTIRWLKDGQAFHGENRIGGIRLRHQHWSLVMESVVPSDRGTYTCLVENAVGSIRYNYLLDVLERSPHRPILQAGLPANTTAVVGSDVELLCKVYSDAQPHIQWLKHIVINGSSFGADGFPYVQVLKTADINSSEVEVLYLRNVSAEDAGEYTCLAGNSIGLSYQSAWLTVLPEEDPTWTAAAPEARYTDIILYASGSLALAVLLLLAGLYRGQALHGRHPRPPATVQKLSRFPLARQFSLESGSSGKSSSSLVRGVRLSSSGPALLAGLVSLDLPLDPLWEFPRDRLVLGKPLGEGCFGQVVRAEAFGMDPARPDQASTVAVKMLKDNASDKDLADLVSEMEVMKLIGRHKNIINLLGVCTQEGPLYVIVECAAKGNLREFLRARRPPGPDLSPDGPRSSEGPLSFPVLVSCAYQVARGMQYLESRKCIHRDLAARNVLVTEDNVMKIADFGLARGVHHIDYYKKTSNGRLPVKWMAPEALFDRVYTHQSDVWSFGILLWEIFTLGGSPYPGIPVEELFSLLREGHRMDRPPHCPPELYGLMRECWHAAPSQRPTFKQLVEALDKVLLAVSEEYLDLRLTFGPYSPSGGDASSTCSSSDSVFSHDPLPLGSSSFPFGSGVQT

With `COc1cc(OC)c(Cl)c(-c2ccc3c(NC(=O)c4cnc(N5CCN(C)CC5)cn4)n[nH]c3n2)c1Cl`, the IC50 with NCI-H1581 [1] amounted to 60.6 nM; in [2], 10.5 nM.

As for `COc1cc(OC)c(Cl)c(-c2ccc3c(NC(=O)c4ccccc4)n[nH]c3n2)c1Cl`, the IC50 is > 1000 nM with NCI-H1581 [1] and 42.4 nM in [2].

For the compound `COc1cc(OC)c(Cl)c(-c2ccc3c(NC(=O)c4ccc(N5CCN(C)CC5)cn4)n[nH]c3n2)c1Cl`, the concentration for half-maximal inhibition (IC50) in the data set with NCI-H1581 [1] amounted to 4.4 nM; in data set [2], 7.8 nM.

Take `COCCN1CCN(c2ccc(C(=O)Nc3n[nH]c4nc(-c5c(Cl)c(OC)cc(OC)c5Cl)ccc34)cc2)CC1`: in data set [3], the Vd came out at 4.51 L/kg. For the same compound, the IC50 is 0.7 nM in the data set on NCI-H1581 [1]; 0.3 nM in data set [2]; < 0.4 nM in data set [8]; < 0.2 nM in the data set on KG-1; 52.7 nM in [13]; < 0.2 nM in the data set with RT-112. Further, the IC50 in the data set on SNU-16 is < 0.2 nM; in data set [20], 2 nM; in data set [21], 0.7 nM. Besides, the clearance in [4] was 16.6 mL/min/kg. Also, the half-life is 188 min in data set [5] and 166 min in data set [9]. The same compound displayed a bioavailability in [6] of 72%. Also, the inhibition in vivo at 50 mg/kg in the data set on NCI-H1581 [7] came out at 100%. In addition, the TGI result in the data set on NCI-H1581 [10] is “Dose-dependent effect”. Further, the values for the Cmax in data set [11] and in data set [15] were 1650 ng/mL and 826 ng/mL, respectively. Also, the values for the AUC(0-inf) in data set [12] and in data set [14] were 2000 ng·h/mL and 9010 ng·h/mL, respectively. The Activity entry in data set [16] and in data set [18] was “Non-Toxic” throughout. In the data set with NCI-H1581 [17], the inhibition in vivo at 12.5 mg/kg was 54%. Also, the fraction unbound at 4 h, 5 µM in data set [19] is 0.004.

On to `COc1cc(OC)c(Cl)c(-c2ccc3c(NC(=O)c4ccc(N5CCN(C)CC5)s4)n[nH]c3n2)c1Cl`, for which the IC50 came out at 3.7 nM in the data set with NCI-H1581 [1] and 4.1 nM in data set [2].

Regarding `COc1cc(OC)c(Cl)c(-c2ccc3c(NC(=O)c4ccc(N5CCN(C)CC5)cc4)n[nH]c3c2)c1Cl`, the IC50 in the data set with NCI-H1581 [1] stood at 324 nM; in data set [2] it was 3.3 nM.

With `COc1cc(OC)cc(-c2ccc3c(NC(=O)c4ccc(N5CCN(C)CC5)cc4)n[nH]c3n2)c1`, the IC50 with NCI-H1581 [1] is > 1000 nM; in [22], 548 nM; in [2], 3710 nM.

For the compound `COc1cc(OC)c(Cl)c(-c2ccc3c(NC(=O)c4ccc(N5CCN(S(C)(=O)=O)CC5)cc4)n[nH]c3n2)c1Cl`, the figures for the IC50 (in the data set with NCI-H1581 [1]; in data set [2]) were 245 nM and 0.2 nM, respectively.

As for `COc1cc(OC)c(Cl)c(-c2ccc3c(NC(=O)c4ccc(N5CCCCC5)cc4)n[nH]c3n2)c1Cl`, the results for the IC50 (in the data set on NCI-H1581 [1]; in data set [2]) were 558 nM and 8.8 nM, respectively.

For the compound `COc1cc(OC)c(Cl)c(-c2ccc3c(NC(=O)c4ccc(N)cc4)n[nH]c3n2)c1Cl`, the IC50 in the data set on NCI-H1581 [1] worked out at 218 nM; in [2], 8.8 nM.

With `CCN1CCN(c2ccc(C(=O)Nc3n[nH]c4nc(-c5c(Cl)c(OC)cc(OC)c5Cl)ccc34)cc2)CC1`, the results for the IC50 (in the data set with NCI-H1581 [1]; in data set [2]) were 0.7 nM and 0.5 nM, respectively.

Turning to `COc1cc(OC)c(Cl)c(-c2ccc3c(NC(=O)c4ccc(N(C)CCN(C)C)cc4)n[nH]c3n2)c1Cl`, the IC50 with NCI-H1581 [1] was determined as 11 nM; in data set [2], 3.9 nM.

With `COc1cc(OC)c(Cl)c(-c2ccc3c(NC(=O)c4ccc(N5CCOCC5)cc4)n[nH]c3n2)c1Cl`, the IC50 with NCI-H1581 [1] stood at 865 nM; in [2], 7.7 nM.

Regarding `COc1cc(OC)c(Cl)c(-c2ccc3c(NC(=O)c4ccc(N5CCN(C)CC5)nc4)n[nH]c3n2)c1Cl`, the 50% inhibitory concentration (IC50) stood at 1.5 nM with NCI-H1581 [1] and 6.2 nM in data set [2].

Regarding `COc1cc(OC)c(Cl)c(-c2ccc3c(NC(=O)c4ccc(N5CCNCC5)cc4)n[nH]c3n2)c1Cl`, the IC50 stood at 1.4 nM in the data set on NCI-H1581 [1] and 11.7 nM in data set [2].

Regarding `COc1cc(OC)c(Cl)c(-c2ccc3c(NC(=O)c4ccc(N5CCN(C)CC5)cc4Cl)n[nH]c3n2)c1Cl`, the IC50 in the data set on NCI-H1581 [1] turned out to be 27.6 nM; in [2], 14 nM.
